From ChEMBL document CHEMBL1772973, “Design, synthesis, radiolabeling, and in vitro and in vivo evaluation of bridgehead iodinated analogues of N-{2-[4-(2-methoxyphenyl)piperazin-1-yl]ethyl}-N-(pyridin-2-yl)cyclohexanecarboxamide (WAY-100635) as potential SPECT ligands for the 5-HT1A receptor” (J Med Chem, 2011)

Experiments:
Format in all cases: ADME, organism-based
Cerebellum [1] = test: Biodistribution in Wistar rat cerebellum at 7 MBq, iv after 45 mins; conditions: in vivo, 0.75 h
Rattus norvegicus [2] = test: Biodistribution in Wistar rat rest cortex at 7 MBq, iv after 120 mins; conditions: in vivo, 2 h
Cerebellum [3] = test: Biodistribution in Wistar rat cerebellum at 7 MBq, iv after 120 mins; conditions: in vivo, 2 h
Lung [4] = test: Biodistribution in Wistar rat lung at 7 MBq, iv after 15 mins; conditions: in vivo, 0.25 h
Hippocampus [5] = test: Biodistribution in Wistar rat hippocampus at 7 MBq, iv after 15 mins; conditions: in vivo, 0.25 h
Thyroid gland [6] = test: Biodistribution in Wistar rat thyroid assessed per organ at 7 MBq, iv after 120 mins; conditions: in vivo, 2 h
Kidney [7] = test: Biodistribution in Wistar rat kidney at 7 MBq, iv after 120 mins; conditions: in vivo, 2 h
Rattus norvegicus [8] = test: Biodistribution in Wistar rat frontal cortex at 7 MBq, iv after 45 mins; conditions: in vivo, 0.75 h
Rattus norvegicus [9] = test: Biodistribution in Wistar rat rest cortex at 7 MBq, iv after 15 mins; conditions: in vivo, 0.25 h
Rattus norvegicus [10] = test: Biodistribution in Wistar rat frontal cortex at 7 MBq, iv after 15 mins; conditions: in vivo, 0.25 h
Blood [11] = test: Biodistribution in Wistar rat blood at 7 MBq, iv after 15 mins; conditions: in vivo, 0.25 h
Blood [12] = test: Biodistribution in Wistar rat blood at 7 MBq, iv after 120 mins; conditions: in vivo, 2 h
Lung [13] = test: Biodistribution in Wistar rat lung at 7 MBq, iv after 120 mins; conditions: in vivo, 2 h
Heart [14] = test: Biodistribution in Wistar rat heart at 7 MBq, iv after 45 mins; conditions: in vivo, 0.75 h
Blood [15] = test: Biodistribution in Wistar rat blood at 7 MBq, iv after 45 mins; conditions: in vivo, 0.75 h
Cerebellum [16] = test: Biodistribution in Wistar rat cerebellum at 7 MBq, iv after 15 mins; conditions: in vivo, 0.25 h
Striatum [17] = test: Biodistribution in Wistar rat striatum at 7 MBq, iv after 15 mins; conditions: in vivo, 0.25 h
Lung [18] = test: Biodistribution in Wistar rat lung at 7 MBq, iv after 45 mins; conditions: in vivo, 0.75 h
Occipital cortex [19] = test: Biodistribution in Wistar rat occipital cortex at 7 MBq, iv after 45 mins; conditions: in vivo, 0.75 h
Occipital cortex [20] = test: Biodistribution in Wistar rat occipital cortex at 7 MBq, iv after 120 mins; conditions: in vivo, 2 h
Liver [21] = test: Biodistribution in Wistar rat liver at 7 MBq, iv after 45 mins; conditions: in vivo, 0.75 h
Hippocampus [22] = test: Biodistribution in Wistar rat hippocampus at 7 MBq, iv after 120 mins; conditions: in vivo, 2 h
Nucleic Acid [23] = test: Ratio of drug level in cerebellum to hippocampus in Wistar rat at 7 MBq, iv after 45 mins; conditions: in vivo, 0.75 h
Heart [24] = test: Biodistribution in Wistar rat heart at 7 MBq, iv after 15 mins; conditions: in vivo, 0.25 h
Occipital cortex [25] = test: Biodistribution in Wistar rat occipital cortex at 7 MBq, iv after 15 mins; conditions: in vivo, 0.25 h
Hippocampus [26] = test: Biodistribution in Wistar rat hippocampus at 7 MBq, iv after 45 mins; conditions: in vivo, 0.75 h
Thyroid gland [27] = test: Biodistribution in Wistar rat thyroid assessed per organ at 7 MBq, iv after 15 mins; conditions: in vivo, 0.25 h
Kidney [28] = test: Biodistribution in Wistar rat kidney at 7 MBq, iv after 15 mins; conditions: in vivo, 0.25 h
Striatum [29] = test: Biodistribution in Wistar rat striatum at 7 MBq, iv after 120 mins; conditions: in vivo, 2 h
Striatum [30] = test: Biodistribution in Wistar rat striatum at 7 MBq, iv after 45 mins; conditions: in vivo, 0.75 h
Nucleic Acid [31] = test: Ratio of drug level in cerebellum to occipital cortex in Wistar rat at 7 MBq, iv after 45 mins; conditions: in vivo, 0.75 h
Heart [32] = test: Biodistribution in Wistar rat heart at 7 MBq, iv after 120 mins; conditions: in vivo, 2 h
Liver [33] = test: Biodistribution in Wistar rat liver at 7 MBq, iv after 120 mins; conditions: in vivo, 2 h
Rattus norvegicus [34] = test: Biodistribution in Wistar rat rest cortex at 7 MBq, iv after 45 mins; conditions: in vivo, 0.75 h
Kidney [35] = test: Biodistribution in Wistar rat kidney at 7 MBq, iv after 45 mins; conditions: in vivo, 0.75 h
Nucleic Acid [36] = test: Ratio of drug level in cerebellum to striatum in Wistar rat at 7 MBq, iv after 45 mins; conditions: in vivo, 0.75 h
Liver [37] = test: Biodistribution in Wistar rat liver at 7 MBq, iv after 15 mins; conditions: in vivo, 0.25 h
Rattus norvegicus [38] = test: Biodistribution in Wistar rat frontal cortex at 7 MBq, iv after 120 mins; conditions: in vivo, 2 h
Nucleic Acid [39] = test: Ratio of drug level in cerebellum to frontal cortex in Wistar rat at 7 MBq, iv after 45 mins; conditions: in vivo, 0.75 h

O=C(N(CCN1CCN(c2ccccc2O)CC1)c1ccccn1)C12C3C4C1C1C2C3C41[123I] (centres undefined)
Drug uptake (Cerebellum [1]): 0.08 % ID/g
Drug uptake (Rattus norvegicus [2]): 0.03 % ID/g
Drug uptake (Cerebellum [3]): 0.04 % ID/g
Drug uptake (Lung [4]): 0.59 % ID/g
Drug uptake (Hippocampus [5]): 0.44 % ID/g
Drug uptake (Thyroid gland [6]): 0.25 %ID
Drug uptake (Kidney [7]): 3.12 % ID/g
Drug uptake (Rattus norvegicus [8]): 0.11 %ID
Drug uptake (Rattus norvegicus [9]): 0.28 % ID/g
Drug uptake (Rattus norvegicus [10]): 0.34 % ID/g
Drug uptake (Blood [11]): 0.18 % ID/g
Drug uptake (Blood [12]): 0.22 % ID/g
Drug uptake (Lung [13]): 0.19 % ID/g
Drug uptake (Heart [14]): 0.14 % ID/g
Drug uptake (Blood [15]): 0.2 % ID/g
Drug uptake (Cerebellum [16]): 0.25 % ID/g
Drug uptake (Striatum [17]): 0.23 % ID/g
Drug uptake (Lung [18]): 0.3 % ID/g
Drug uptake (Occipital cortex [19]): 0.13 % ID/g
Drug uptake (Occipital cortex [20]): 0.04 % ID/g
Drug uptake (Liver [21]): 2.08 % ID/g
Drug uptake (Hippocampus [22]): 0.05 % ID/g
Ratio (Nucleic Acid [23]): 2.38
Drug uptake (Heart [24]): 0.22 % ID/g
Drug uptake (Occipital cortex [25]): 0.37 % ID/g
Drug uptake (Hippocampus [26]): 0.18 % ID/g
Drug uptake (Thyroid gland [27]): 0.28 %ID
Drug uptake (Kidney [28]): 5.54 % ID/g
Drug uptake (Striatum [29]): 0.03 % ID/g
Drug uptake (Striatum [30]): 0.07 % ID/g
Ratio (Nucleic Acid [31]): 1.73
Drug uptake (Heart [32]): 0.12 % ID/g
Drug uptake (Liver [33]): 1.97 % ID/g
Drug uptake (Rattus norvegicus [34]): 0.09 % ID/g
Drug uptake (Kidney [35]): 5.47 % ID/g
Ratio (Nucleic Acid [36]): 0.93
Drug uptake (Liver [37]): 2.38 % ID/g
Drug uptake (Rattus norvegicus [38]): 0.04 % ID/g
Ratio (Nucleic Acid [39]): 1.44
